What all share (assay): Agar well diffusion assay
Format in all cases: cell-based
(In general: In agar diffusion tests the substance spreads into inoculated agar from a disc or well.)

The test system of assay [1] is Pseudomonas aeruginosa (RCMB 010043). The settings on record: 100 μl per well, mean ± SD.
Assay [2] relates to Escherichia coli (RCMB 010052). The note with it: 100 μl per well, mean ± SD. The protocol:
(§1) Antimicrobial activity of nanoparticles was determined using the agar well diffusion assay method as described by Holder and Boyce, 1994. Three bacterial (two gram positive and one gram negative) and […], namely, Bacillis suhtilis (RCMB 010067), […] pneumoniae (RCMB 010011), Escherichia coli (RCMB 010052), and Aspergillus fumigatus (RCMB 02568). The tested organisms were sub-cultured on nutrient agar medium (Oxoid laboratories, UK) for bacteria and Sabouraud dextrose agar (Oxoid laboratories, UK) for fungi. Ampicillin and Gentamicin were used as positive control for gram positive and gram negative bacteria, respectively, while Amphotericin B was used for fungi. The plates were done in triplicates. Bacterial cultures were incubated at 37° C. for 24 h, while the fungal cultures were incubated at 25-30° C. for 3-7 days. Antimicrobial activity was determined by measuring the zone of inhibition [A. Agwa, (2000)]. The antimicrobial effect of the B. aegyptiaca nanoparticles was evaluated against different gram positive and gram negative bacteria as well as fungi. The results of the antimicrobial effects of the synthesized nanoparticles are compiled in the Tables below.

Assay [3] concerns Salmonella typhimurium (RCMB 010072). The settings on record: 100 μl per well, mean ± SD.
For assay [4], the system named is Klebsiella pneumoniae (RCMB 000111). The note with it: 100 μl per well, mean ± SD.
Assay [5] deals with Escherichia coli (RCMB 010054). The settings on record: samples at 100 μl, mean ± SD.
Assay [6] deals with Staphylococcus aureus (RCMB 010028). The settings on record: 100 μl per well, mean ± SD.
The subject of assay [7] is Bacillis subtilis (RCMB 010067). The note with it: 100 μl per well, mean ± SD. The protocol:
as §1

Assay [8] concerns Streptococcus pneumoniae (RCMB 010011). The settings on record: samples at 100 μl, mean ± SD. The protocol:
as §1

The test system of assay [9] is Bacillis subtilis (RCMB 010068). The settings on record: samples at 100 μl, mean ± SD. The protocol:
as §1

The subject of assay [10] is Aspergillus fumigatus (RCMB 02568). The settings on record: 100 μl per well, mean ± SD. The protocol:
as §1

Assay [11] concerns Aspergillus fumigatus (RCMB 02567). The note with it: samples at 100 μl, mean ± SD. The protocol: as §1
The subject of assay [12] is Geotricum candidum (RCMB 05097). The settings on record: 100 μl per well, mean ± SD.

As to Gentamicin, the “Mean zone of inhibition beyond well diameter (6 mm)” value in [1] worked out at 17.3 ± 0.15 mm; in assay [2], 22.3 ± 0.18 mm; in assay [3], 25.4 ± 0.18 mm; in assay [4], 20.2 ± 0.25 mm. In [5], the “Diameter of the inhibition zone beyond the well diameter of 6 mm” value is reported as 20.3 ± 0.58 mm.

On to `CC1(C)S[C@@H]2[C@H](NC(=O)[C@H](N)c3ccccc3)C(=O)N2[C@H]1C(=O)O` [Ampicillin], for which the “Mean zone of inhibition beyond well diameter (6 mm)” value in assay [6] came out at 27.4 ± 0.18 mm; in assay [7] it was 32.4 ± 0.10 mm. Besides, the “Diameter of the inhibition zone beyond the well diameter of 6 mm” value in [8] was 21.0 ± 1.0 mm; in [9], 31.3 ± 1.5 mm.

Take `C[C@@H]1[C@H](O)[C@@H](C)/C=C/C=C/C=C/C=C/C=C/C=C/C=C/[C@H](O[C@@H]2O[C@H](C)[C@@H](O)[C@H](N)[C@@H]2O)C[C@@H]2O[C@](O)(C[C@@H](O)C[C@@H](O)[C@H](O)CC[C@@H](O)C[C@@H](O)CC(=O)O[C@H]1C)C[C@H](O)[C@H]2C(=O)O` [Amphotericin B]: the “Mean zone of inhibition beyond well diameter (6 mm)” value was 23.7 ± 0.10 mm in assay [10] and 28.7 ± 0.22 mm in assay [12]. Besides, in assay [11], the “Diameter of the inhibition zone beyond the well diameter of 6 mm” value was 21.7 ± 1.5 mm.
